# Results reported in the METLIN SMRT retention time set (Domingo-Almenara et al. 2019).
# Test: gradient 5% acetonitrile 3 min, to 50% in 2 min, to 85% in 15 min, held 3 min, 100 µL/min
# Details: column: Zorbax Extend-C18 2.1 x 50 mm; eluents: water / acetonitrile, 0.1% formic acid
# How it was run: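 Pure standards were analyzed in mixtures of ~100 molecules using HPLC coupled to a quadrupole time-of-flight mass spectrometer, in both positive and negative ionization mode. Separation used a Zorbax Extend-C18 column (2.1 × 50 mm, 1.8 μm) at 100 μL/min, with water and acetonitrile each containing 0.1% formic acid. Dead and dwell volumes were 40 μL and 900 μL, and data were collected over 3 months. Retention time was read from computationally picked adduct peaks, each inspected manually.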
row,RP-LC retention time,SMILES
1,819 s,COc1ccc(C(C)NC(=O)CCc2ccc3c(ccn3C)c2)cc1OC (stereo not given)
2,686 s,CC(C)(CO)NC(=O)Cc1ccc(NS(=O)(=O)/C=C/c2ccccc2)cc1
3,631 s,O=C(C1CC1)N1CCC(c2noc(-c3cccnc3)n2)C1 (stereo not given)
4,904 s,CCOC(=O)c1c(C)c(CCC(=O)NC(C)c2ccccc2)n(C)c1C (stereo not given)
5,556 s,CCNC(=O)NCCc1cn(C)c2ncccc12
6,579 s,O=C(NCc1ccccc1)c1ccc(=O)n(CCN2CCCC2)c1
7,797 s,CNC(=O)c1sc(-c2cccc(C)c2)nc1C
8,771 s,CCCNC(=O)NCCC1CCN(S(=O)(=O)c2ccc(F)cc2)CC1
9,757 s,CCOC(=O)c1ccc(NC(=O)c2ccc(-n3nncc3C)cc2)cc1
10,914 s,CCc1cccc(NC(=O)Cn2c(=O)n(-c3ccc(F)cc3)c(=O)c3c2cc(C)n3C)c1
11,568 s,O=C(NCCCN1CCOCC1)C1CCN(c2nc3cccnc3s2)CC1
12,693 s,Cc1cn(C)c(CC(=O)NCc2cccs2)c1C(=O)O
13,761 s,CCOC(=O)Cc1ccc(NC(=O)N2CCC3(CC2)NC(=O)c2ccccc2O3)cc1
14,824 s,CCOC(=O)c1ccccc1NC(=O)NCC(c1cccnc1)c1cn(C)c2ccccc12 (stereo not given)
15,553 s,CN(C)C[C@@H]1CN(Cc2ccccn2)C[C@H]1NS(=O)(=O)c1cccc(F)c1
16,541 s,O=C1NC(C(=O)NCc2ccccn2)Cn2cccc21 (stereo not given)
17,650 s,Cc1cc(C)c2nc(C)cc(C(=O)NC(C)C)c2c1
18,918 s,Cc1ccc(-c2nc(N3CCSCC3)ncc2C(=O)O)cc1
19,659 s,COc1ccc(Nc2c(-c3ccc(OC)cc3)nc3ncccn23)cc1
20,777 s,CC(=O)NC(C)c1nc(-c2ccc(Cl)cc2)no1 (stereo not given)
21,866 s,CC(CNC(=O)CC1CCN(S(=O)(=O)c2ccccc2)CC1)c1ccccc1 (stereo not given)
22,588 s,O=C(CCc1nnc2ccc(NCc3ccccc3)nn12)N1CCN(c2ccccn2)CC1
23,751 s,Cc1ccc(NC(=O)N2CCC(n3cnc4ccccc4c3=O)CC2)c(C)c1
24,862 s,COc1cccc(N2CCN(c3ccnc(SCC(=O)NCCC4=CCCCC4)n3)CC2)c1

row,RP-LC retention time,SMILES
1,551 s,Cc1c(C(=O)NCCN2CCCCCC2)sc2ncnc(N3CCN(C)CC3)c12
2,698 s,Cn1nc(N2CCCC(NS(=O)(=O)c3cccc4cccnc34)C2)ccc1=O (stereo not given)
3,767 s,Cc1nc(-c2ccc(F)cc2)sc1C(=O)N(C)C
4,1030 s,CC(C)c1cc(C(=O)Nc2ccc(C#N)cc2)nc2ccnn12
5,638 s,CCc1cccc(NC(=O)Cc2cn3cc(F)ccc3n2)c1
6,715 s,CCC(C)C(NC(=O)c1ccccn1)C(=O)Nc1nc2ccccc2[nH]1 (stereo not given)
7,1090 s,O=C(N[C@H](Cc1ccccc1)C(=O)NCc1cscn1)c1ccc(F)cc1
8,656 s,COc1ccc(-c2cc3n(n2)CCCN(C(C)=O)C3)cc1
9,664 s,O=C(CCc1nnn2c1CN(C(=O)Nc1cccc(F)c1)CC2)NC1CC1
10,613 s,CN(C)c1ccc(C(CNC(=O)C(=O)Nc2ccc(F)c(Cl)c2)N2CCCC2)cc1 (stereo not given)
11,875 s,Cc1ccc(N2CCC(NC(=O)Nc3ccc(C)cc3C)C2=O)cc1 (stereo not given)
12,635 s,Cc1cc(=O)n(CC(=O)Nc2ccc(F)cc2)c(N2CCCCC2)n1
13,943 s,O=C(NC1CCCCCC1)c1nc(Nc2ccc(F)cc2)c2ccccc2n1
14,711 s,CCc1ccccc1NC(=O)NCC(c1cccnc1)c1cn(C)c2ccccc12 (stereo not given)
15,604 s,CCN1CCC(N(Cc2cccs2)C(=O)Nc2ccc(OC)c(OC)c2)CC1
16,676 s,CCCN1CCN(C(=O)C2=NN(c3ccc(Cl)cc3)c3ncccc3S2(=O)=O)CC1
17,627 s,Cn1cnc(S(=O)(=O)N2CCC(c3noc(-c4cccnc4)n3)C2)c1 (stereo not given)
18,894 s,O=C(NCCc1ccc(Cl)cc1)c1csc(C(=O)N2CCCC2)n1
19,978 s,COC(=O)c1ccc(-c2nc3cnccn3c2Nc2cc(C)cc(C)c2)cc1
20,858 s,CC1CCC2(CC1)NC(=O)N(CC(=O)Nc1ccccc1Cl)C2=O (stereo not given)
21,932 s,Cn1c(=O)oc2cc(-c3noc(-c4cccc5[nH]ccc45)n3)ccc21
22,1110 s,Cn1cc(C2=C(c3ccc(Cl)cc3Cl)C(=O)NC2=O)c2ccccc21
23,633 s,CCn1cnc(S(=O)(=O)N2CCCC(C(=O)Nc3ccc(-c4nc5ccccc5[nH]4)cc3)C2)c1 (stereo not given)

# The next lines start with the compound.
row,SMILES,RP-LC retention time
1,COc1ccc2cc1Oc1ccc(cc1)CC1c3c(cc(OC)c4c3Oc3cc5c(cc3O4)CCNC5C2)CCN1C (stereo not given),601 s
2,CCN1CCN(S(=O)(=O)c2ccc(Cl)c(-c3nnc(-c4ccccc4)o3)c2)CC1,702 s
3,O=C(c1cccs1)N1CCC2(CC1)NC(=O)N(Cc1ccccc1Cl)C2=O,821 s
4,COc1ccc(CNC2=NCCNC23CCN(S(=O)(=O)c2cc(C)ccc2C)CC3)cc1,754 s
5,Clc1ccccc1-c1noc(Cc2nnc(-c3ccccc3)o2)n1,978 s
6,O=C(c1cccs1)N1CC(Oc2cccc(-c3nc(-c4ccccc4)no3)c2)C1,1180 s
7,O=c1n(Cc2ccccc2)nc2c(S(=O)(=O)N3CCCCCC3)cccn12,948 s
8,Cc1ccc(S(=O)(=O)N2CCC3(CC2)NCCN=C3NCc2ccc(F)cc2)cc1C,757 s
9,Cc1[nH]c(C(=O)N2CCCC(C(=O)NCCN3CCCCC3)C2)c(C)c1C(=O)OC(C)C (stereo not given),634 s
10,COc1ccc(S(=O)(=O)N(C)C2CCc3nn(CC4CC4)c(=O)n3CC2)cc1Cl (stereo not given),810 s
11,O=S(=O)(c1cc(-c2noc(C3CCCC3)n2)cs1)N1CCC2(CC1)OCCO2,1140 s
12,Cc1ncc2c(n1)C[C@@H]1CC[C@H]2N1S(=O)(=O)Cc1ccccc1,706 s
13,CN1C(=O)[C@H]2CN(Cc3ccc(F)cc3Cl)C[C@H]2C1=O,642 s
14,Cc1nnc(C2CCCCCN2S(=O)(=O)c2ccc(F)c(C)c2)o1 (stereo not given),893 s
15,CCOC(=O)N1CCN(C(=O)CSc2nnc(C3COc4ccccc4O3)o2)CC1 (stereo not given),762 s
16,Cc1[nH]nc(-c2c(C)sc(C)c2S(=O)(=O)NCc2ccc(Cl)cc2)c1C,1100 s
17,O=C1c2ccc(O)cc2O[C@H](c2cc(O)c(O)c(O)c2)[C@H]1O,617 s
18,COC(=O)c1cccc(C(=O)N2CCN(c3ccccc3F)CC2)n1,777 s
19,O=C(c1cccc(C(F)(F)F)c1)N1CCN(c2cc(-n3ccnc3)ncn2)CC1,606 s
20,O=S(=O)(NC1CCCCCC1)c1ccc(-c2nnc(C3CC3)o2)o1,920 s
21,O=C(O)CCC1CCN(c2cc(NC3CC3)ncn2)CC1,587 s
22,Cc1oc(-c2[nH]ncc2C(=O)N2CCCC2)cc1S(=O)(=O)Nc1cc(F)ccc1F,699 s

row,SMILES,RP-LC retention time
1,Cc1cc2nn(CC(=O)N3CCC(C)CC3)c(=O)n2c(-c2ccc(Cl)cc2)n1,867 s
2,CC(C)c1ccc(NC(=O)C2CCCN(S(=O)(=O)c3c[nH]c(C(=O)N4CCCC4)c3)C2)cc1 (stereo not given),939 s
3,CC(=O)N1CCc2cc(S(=O)(=O)C(C)CC(=O)N3CCN(c4ccc(C)cc4C)CC3)ccc21 (stereo not given),968 s
4,CC(Oc1ccc(-c2cnc3ccccc3n2)cc1)C(=O)N1CCOCC1 (stereo not given),751 s
5,O=C(NCCCN1CCC(Cc2ccccc2)CC1)C1CCCN(S(=O)(=O)N2CCCCC2)C1 (stereo not given),745 s
6,O=C(CCn1nnc2cc(-c3noc(-c4ccc(Cl)cc4)n3)ccc21)N1CCCC1,1010 s
7,Cc1ccc(-n2c(=O)c3c(cc(C)n3C)n(CC(=O)Nc3ccc(C)cc3Cl)c2=O)cc1,960 s
8,CCc1nnc2ccc(-c3noc(-c4c(F)cccc4F)n3)cn12,845 s
9,CC(C)(C)NCC(O)c1ccccc1Cl (stereo not given),650 s
10,Cc1cc(C)cc(NS(=O)(=O)c2cc(-c3[nH]ncc3C(=O)N3CCOCC3)oc2C)c1,731 s
11,O=C1NC(=O)/C(=C\c2ccccc2Br)S1,821 s
12,Cc1nc2nc(-c3ccc(C(C)(C)C)cc3)nn2c(C)c1CC(=O)N1CCc2ccccc2C1,1120 s
13,Cc1ccc(-n2ccc(=O)c(-c3nc(-c4ccc(OC(C)C)cc4)no3)n2)cc1,1060 s
14,COc1ccccc1N1CCN(S(=O)(=O)c2cc3c(s2)CCN(C(C)=O)C3)CC1,838 s
15,O=C(Oc1ccc2oc(=O)sc2c1)c1cccc(Cl)c1,1090 s
16,COc1cc(Cl)c(C)cc1NC(=O)CN1C(=O)NC2(CCCCC2)C1=O,884 s
17,Nc1cc(C2CCN(C(=O)COc3ccc(F)cc3)CC2)no1,656 s
18,CC1CCN(c2ncc3c(n2)CCN(Cc2ccc(N(C)C)cc2)C3)CC1,757 s
19,CC(=O)N1CCCC1c1nc(C2CN(C(=O)c3ccsc3)C2)no1 (stereo not given),629 s
20,CS(=O)(=O)N1CCN(Cc2nnnn2-c2ccc(Cl)cc2)CC1,719 s
21,COc1ccc(-n2nnc(-c3nsc(Nc4ccc(OC)c(Cl)c4)n3)c2C)cc1,1010 s
